In ChEMBL document CHEMBL1138038, “Sequence-based design and discovery of peptide inhibitors of HIV-1 integrase: insight into the binding mode of the enzyme” (J Med Chem, 2006) one finds IC50 data, which are given here for 54 compounds.

Residues, ends and D or L forms follow the SMILES beside them.

Test [1] addresses T1, Human immunodeficiency virus type 1 integrase (Human immunodeficiency virus 1, UniProt Q7ZJM1). In words: Inhibition of wild type HIV1 integrase 3' processing activity.
Test [2] deals with T1, Human immunodeficiency virus type 1 integrase. The test is described as follows: Inhibition of wild type HIV1 integrase strand transfer activity.

T1 sequence (Q7ZJM1 whole entry): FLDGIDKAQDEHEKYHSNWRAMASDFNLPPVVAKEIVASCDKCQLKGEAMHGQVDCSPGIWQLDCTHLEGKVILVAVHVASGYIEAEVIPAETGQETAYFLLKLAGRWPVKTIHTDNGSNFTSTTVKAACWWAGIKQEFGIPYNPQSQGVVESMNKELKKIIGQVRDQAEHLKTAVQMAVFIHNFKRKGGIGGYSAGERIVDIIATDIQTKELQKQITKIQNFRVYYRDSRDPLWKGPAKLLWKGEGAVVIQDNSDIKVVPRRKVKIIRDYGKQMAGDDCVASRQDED

The IC50 is the point on the concentration scale where inhibition reaches its midpoint. Read a low IC50 as inhibition by little substance. For H-ACWWAGIRQEF-NH2, the IC50 in test [1] and in test [2] was more than 333 µM in each case.

As for H-KLAGRW-NH2, the 50% inhibitory concentration (IC50) in test [1] and in test [2] was more than 100 µM each time.

For the compound H-ASWWAGIKQEF-NH2, the IC50 in test [1] worked out at 294 µM; in test [2] it was 163 µM.

As to `CC(C)C[C@H](NC(=O)[C@H](CCCCN)NC(=O)[C@H](CC(C)C)NC(=O)[C@H](CC(C)C)NC(=O)[C@H](Cc1ccccc1)NC(=O)[C@H](Cc1ccc(O)cc1)NC(=O)[C@H](C)NC(=O)[C@@H](N)[C@@H](C)O)C(=O)N[C@@H](C)C(=O)NCC(=O)N[C@@H](CCCN=C(N)N)C(=O)N[C@@H](Cc1c[nH]c2ccccc12)C(N)=O`, the values for the concentration for half-maximal inhibition (IC50) in test [1] and in test [2] were 21 µM and 2.7 µM, respectively.

In the case of H-ACWWAGIAQEF-OH, the IC50 in test [1] came to 62 µM; in test [2] it was 55 µM.

As for H-TAYFLLALAGRW-OH, the IC50 in test [1] came out at 113 µM; in test [2], 56 µM.

Turning to H-TAAFLLKLAGRW-OH, the 50% inhibitory concentration (IC50) was determined as 193 µM in test [1] and 119 µM in test [2].

Consider H-WAGIKQ-NH2, for which the half-inhibitory concentration (IC50) in test [1] and in test [2] was more than 100 µM each time.

Turning to H-ACWWAGIKAEF-OH, the IC50 in test [1] and in test [2] was more than 333 µM each time.

As for H-ESMNKELKKI-NH2, the half-maximal inhibitory concentration (IC50) in test [1] and in test [2] was more than 2000 µM each time.

Take H-TAYFLLILAGRW-NH2: the IC50 in test [1] came out at 4.1 µM; in test [2] it was 3 µM.

H-GYSAGERIVD-NH2: the half-maximal inhibitory concentration (IC50) in test [1] and in test [2] was more than 2000 µM in each case.

As to H-TAYFLAKLAGRW-OH, the IC50 in test [1] and in test [2] was more than 333 µM in each case.

On to H-TAYFLLKLAGRL-NH2, for which the IC50 stood at 315 µM in test [1] and 38 µM in test [2].

On to H-AAWWAGIKQEF-OH, for which the values for the IC50 in test [1] and in test [2] were 277 µM and 311 µM, respectively.

As for H-VHVASGY-NH2, the IC50 in test [1] and in test [2] was more than 2000 µM throughout.

As for H-TAYALLKLAGRW-OH, the half-inhibitory concentration (IC50) in test [1] and in test [2] was more than 333 µM each time.

In the case of `CC(C)C[C@H](NC(=O)[C@H](CCC(N)=O)NC(=O)[C@H](CS)NC(=O)[C@H](CCCCN)NC(=O)[C@H](CC(=O)O)NC(=O)[C@H](CS)NC(=O)[C@H](CO)NC(=O)[C@H](C)N)C(=O)N[C@@H](CCCCN)C(=O)NCC(N)=O` (H-ASCDKCQLKG-NH2), the IC50 in test [1] and in test [2] was more than 2000 µM each time.

Regarding `CC(C)C[C@@H](NC(=O)[C@@H](C)NC(=O)CNC(=O)[C@@H](CCCN=C(N)N)NC(=O)[C@H](N)Cc1c[nH]c2ccccc12)C(=O)N[C@H](CCCCN)C(=O)N[C@H](CC(C)C)C(=O)N[C@H](CC(C)C)C(=O)N[C@H](Cc1ccccc1)C(=O)N[C@H](Cc1ccc(O)cc1)C(=O)N[C@H](C)C(=O)N[C@@H](C(=O)O)[C@H](C)O`, the IC50 in test [1] was 3.5 µM; in test [2], 4 µM.

Turning to H-ACWWAGAKQEF-OH, the half-inhibitory concentration (IC50) in test [1] and in test [2] was more than 333 µM throughout.

H-VPRRKAKI-NH2: the IC50 in test [1] and in test [2] was more than 1000 µM each time.

As for H-FIHNFKRK-NH2, the concentration for half-maximal inhibition (IC50) in test [1] and in test [2] was more than 2000 µM in each case.

For H-GRWPVKT-NH2, the half-inhibitory concentration (IC50) in test [1] and in test [2] was more than 2000 µM throughout.

As for H-TAYFLLKLAGRA-OH, the IC50 in test [1] and in test [2] was more than 333 µM throughout.

On to H-ACWGAGIKQEF-NH2, for which the concentration for half-maximal inhibition (IC50) in test [1] and in test [2] was more than 333 µM throughout.

In the case of H-PAETGQET-NH2, the 50% inhibitory concentration (IC50) in test [1] and in test [2] was more than 2000 µM in each case.

For the compound H-ACWWAGIKQEA-OH, the results for the IC50 in test [1] and in test [2] were 245 µM and 206 µM, respectively.

With H-EEHEKYHSNW-NH2, the IC50 in test [1] and in test [2] was more than 2000 µM in each case.

On to `CC(C)C[C@@H](NC(=O)[C@@H](CCCCN)NC(=O)[C@@H](CC(C)C)NC(=O)[C@@H](CC(C)C)NC(=O)[C@@H](Cc1ccccc1)NC(=O)[C@@H](Cc1ccc(O)cc1)NC(=O)[C@@H](C)NC(=O)[C@H](N)[C@H](C)O)C(=O)N[C@H](C)C(=O)NCC(=O)N[C@H](CCCN=C(N)N)C(=O)N[C@H](Cc1c[nH]c2ccccc12)C(N)=O`, for which the results for the half-inhibitory concentration (IC50) in test [1] and in test [2] were 65 µM and 13 µM, respectively.

Take H-YFLLKL-NH2: the half-maximal inhibitory concentration (IC50) in test [1] and in test [2] was 20 µM each time.

Turning to H-TAYFLLKLAGAW-OH, the concentration for half-maximal inhibition (IC50) in test [1] was 83 µM; in test [2], 80 µM.

In the case of `CC(C)C[C@@H](NC(=O)[C@@H](CCCCN)NC(=O)[C@@H](CC(C)C)NC(=O)[C@@H](CC(C)C)NC(=O)[C@@H](Cc1ccccc1)NC(=O)[C@@H](Cc1ccc(O)cc1)NC(=O)[C@@H](C)NC(=O)[C@H](N)[C@H](C)O)C(=O)N[C@H](C)C(=O)NCC(=O)N[C@H](CCCN=C(N)N)C(=O)N[C@H](Cc1c[nH]c2ccccc12)C(=O)O`, the IC50 in test [1] came to 96 µM; in test [2], 16 µM.

H-WKGPAKLLWK-NH2: the IC50 in test [1] and in test [2] was more than 1000 µM throughout.

As for H-VRDQAEHLKT-NH2, the IC50 in test [1] and in test [2] was more than 2000 µM throughout.

Regarding H-ACWWAAIKQEF-OH, the IC50 was 90 µM in test [1] and 43 µM in test [2].

Turning to `CC[C@@H](C)[C@@H](NC(=O)CNC(=O)[C@@H](C)NC(=O)[C@@H](Cc1c[nH]c2ccccc12)NC(=O)[C@@H](Cc1c[nH]c2ccccc12)NC(=O)[C@@H](CS)NC(=O)[C@@H](C)N)C(=O)N[C@H](CCCCN)C(=O)N[C@H](CCC(N)=O)C(=O)N[C@H](CCC(=O)O)C(=O)N[C@H](Cc1ccccc1)C(=O)O`, the IC50 in test [1] and in test [2] was more than 1000 µM in each case.

For H-TAYFLL-NH2, the IC50 in test [1] and in test [2] was 500 µM in each case.

With H-ACGWAGIKQEF-NH2, the 50% inhibitory concentration (IC50) in test [1] stood at 46 µM; in test [2] it was 16 µM.

H-ACWWAGIKQAF-OH: the IC50 in test [1] and in test [2] was more than 333 µM throughout.

Take H-TAYFLLKAAGRW-OH: the IC50 in test [1] is more than 333 µM; in test [2], 106 µM.

For `CC(C)C[C@H](NC(=O)[C@H](CCCCN)NC(=O)[C@H](CC(C)C)NC(=O)[C@H](CC(C)C)NC(=O)[C@H](Cc1ccccc1)NC(=O)[C@H](Cc1ccc(O)cc1)NC(=O)[C@H](C)NC(=O)[C@@H](N)[C@@H](C)O)C(=O)N[C@@H](C)C(=O)N[C@@H](C)C(=O)N[C@@H](CCCN=C(N)N)C(=O)N[C@@H](Cc1c[nH]c2ccccc12)C(=O)O`, the IC50 in test [1] was 118 µM; in test [2], 19 µM.

With H-AAYFLLKLAGRW-OH, the values for the IC50 in test [1] and in test [2] were 100 µM and 47 µM, respectively.

Consider H-ACWAAGIKQEF-OH, for which the concentration for half-maximal inhibition (IC50) in test [1] and in test [2] was more than 333 µM each time.

Take `CC[C@H](C)[C@H](NC(=O)CNC(=O)[C@@H]1CCCN1C(=O)[C@H](CO)NC(=O)[C@H](CS)NC(=O)[C@H](CC(=O)O)NC(=O)[C@@H](NC(=O)[C@H](CCC(N)=O)NC(=O)CNC(=O)[C@@H](N)Cc1cnc[nH]1)C(C)C)C(=O)N[C@@H](Cc1c[nH]c2ccccc12)C(=O)N[C@@H](CCC(N)=O)C(=O)N[C@@H](CC(C)C)C(=O)N[C@@H](CC(=O)O)C(=O)N[C@@H](CS)C(=O)N[C@H](C(=O)N[C@@H](Cc1cnc[nH]1)C(N)=O)[C@@H](C)O` (H-HGQVDCSPGIWQLDCTH-NH2): the half-inhibitory concentration (IC50) in test [1] and in test [2] was 1000 µM throughout.

Take H-FGIPYNPQSQ-NH2: the half-maximal inhibitory concentration (IC50) in test [1] and in test [2] was more than 1000 µM in each case.

Consider `CC[C@H](C)[C@H](NC(=O)[C@H](CCCCN)NC(=O)[C@H](CCC(N)=O)NC(=O)[C@H](CCC(=O)O)NC(=O)[C@@H](N)Cc1ccccc1)C(=O)NCC(=O)N[C@@H](C)C(=O)N[C@@H](Cc1c[nH]c2ccccc12)C(=O)N[C@@H](Cc1c[nH]c2ccccc12)C(=O)N[C@@H](CS)C(=O)N[C@@H](C)C(=O)O`, for which the IC50 in test [1] and in test [2] was more than 1000 µM throughout.

Turning to H-ACAWAGIKQEF-OH, the figures for the 50% inhibitory concentration (IC50) in test [1] and in test [2] were 33 µM and 34 µM, respectively.

Regarding H-ACWWAGIKQEF-NH2, the values for the IC50 in test [1] and in test [2] were 95 µM and 56 µM, respectively.

As for H-HTDNGSNF-NH2, the half-inhibitory concentration (IC50) in test [1] and in test [2] was more than 2000 µM throughout.

With H-ACWWAG-NH2, the IC50 in test [1] is more than 100 µM; in test [2], 60 µM.

Regarding H-TAYFALKLAGRW-OH, the IC50 in test [1] came out at 115 µM; in test [2], 51 µM.

Turning to H-TASFLLKLAGRW-NH2, the IC50 in test [1] is 186 µM; in test [2], 11 µM.

Turning to `CC[C@@H](C)[C@@H](NC(=O)[C@@H](CCCCN)NC(=O)[C@@H](CCC(N)=O)NC(=O)[C@@H](CCC(=O)O)NC(=O)[C@H](N)Cc1ccccc1)C(=O)NCC(=O)N[C@H](C)C(=O)N[C@H](Cc1c[nH]c2ccccc12)C(=O)N[C@H](Cc1c[nH]c2ccccc12)C(=O)N[C@@H](CS)C(=O)N[C@H](C)C(=O)O`, the IC50 in test [1] and in test [2] was more than 1000 µM throughout.

Regarding H-IKQEF-NH2, the IC50 in test [1] and in test [2] was more than 100 µM in each case.
